# In patent US20110034420A1, “NOVEL CRYSTALLINE FORM B OF (2R)-(3-AMINO-2-FLUOROPROPYL)PHOSPHINIC ACID” (priority 2008, published 2011):
# Assay: isoelectric point of the zwitterion
# Assay type: physicochemical
# Settings: pH at which it may be crystallised
# Excerpt: (2R)-(3-amino-2-fluoropropyl)phosphinic acid is a zwitterion, that may be crystallised at the isoelectric point, in this case approximately at a pH of 5.3.
smiles,measurement,value
NC[C@@H](F)C[PH](=O)O [(2R)-(3-amino-2-fluoropropyl)phosphinic acid],isoelectric point (pH),~5.3 pH
